{"source": "patent US20250230193A1", "about": "“CYCLIC COMPOUND HAVING SELECTIVE KRAS INHIBITORY EFFECT ON HRAS AND NRAS” (CHUGAI SEIYAKU KABUSHIKI KAISHA, priority 2022, published 2025)", "key": {"[1]": {"target": "GDP-bound NRAS wild-type protein (Homo sapiens, UniProt P01111)", "sequence (P01111 whole entry)": "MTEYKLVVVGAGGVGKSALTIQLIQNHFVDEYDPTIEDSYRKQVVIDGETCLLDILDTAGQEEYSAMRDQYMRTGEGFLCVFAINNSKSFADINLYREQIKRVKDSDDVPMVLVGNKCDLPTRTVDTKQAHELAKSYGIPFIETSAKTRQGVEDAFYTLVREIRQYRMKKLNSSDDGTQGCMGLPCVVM", "assay": "Binding to NRAS by surface plasmon resonance (SPR), Single Cycle Kinetics", "conditions": "SPR"}, "[2]": {"target": "GDP-bound HRAS wild-type protein (Homo sapiens, UniProt P01112)", "sequence (P01112 whole entry)": "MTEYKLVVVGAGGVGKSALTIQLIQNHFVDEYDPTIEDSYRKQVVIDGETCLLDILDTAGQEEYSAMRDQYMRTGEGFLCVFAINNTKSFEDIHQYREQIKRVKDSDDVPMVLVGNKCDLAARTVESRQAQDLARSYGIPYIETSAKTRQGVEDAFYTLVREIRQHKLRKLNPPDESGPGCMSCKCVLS", "assay": "Binding to HRAS by surface plasmon resonance (SPR), Single Cycle Kinetics", "conditions": "SPR"}, "[3]": {"conditions": "KD ratio, GDP-bound NRAS wild-type vs GDP-bound KRAS wild-type"}, "[4]": {"conditions": "KD ratio, GDP-bound HRAS wild-type vs GDP-bound KRAS wild-type"}}, "note": "Where a SMILES comes first, the peptide text is derived from it. Bridges are numbered along the chain shown (N, C = ends). [ ]: non-standard residue; d: D form. The star is where a group is joined. hPhe(3-Cl-4-CF3) = N[C@@H](CCc1ccc(C(F)(F)F)c(Cl)c1)C(=O)O; NPrPhe(4-CF3) = CCCN[C@@H](Cc1ccc(C(F)(F)F)cc1)C(=O)O; NEtPhe(4-Me) = CCN[C@@H](Cc1ccc(C)cc1)C(=O)O; NMeGly(cPent) = CN[C@H](C(=O)O)C1CCCC1; cisHyp = O=C(O)[C@@H]1C[C@H](O)CN1; Hyp = O=C(O)[C@@H]1C[C@@H](O)CN1; NMeD = CN[C@@H](CC(=O)O)C(=O)O; NMeL = CN[C@@H](CC(C)C)C(=O)O; Morpholide = C1CN(*)CCO1; NMeA = CN[C@@H](C)C(=O)O; Ac5c = NC1(C(=O)O)CCCC1; Aze = O=C(O)[C@@H]1CCN1; Ac4c = NC1(C(=O)O)CCC1; Sar = CNCC(=O)O"}
{"compound": "CCCN1C(=O)CN(C)C(=O)CNC(=O)[C@H]([C@@H](C)CC)NC(=O)[C@H](CC(C)C)N(C)C(=O)C[C@@H](C(=O)N2CCOCC2)N(C)C(=O)[C@H](C2CCCC2)N(C)C(=O)C2(CCC2)NC(=O)[C@@H]2CCCN2C(=O)[C@H](CCc2ccc(C(F)(F)F)c(Cl)c2)NC(=O)CN(C)C(=O)[C@@H]1Cc1ccc(C(F)(F)F)cc1", "note": "[PP0393] ([NMeL]IG[Sar][NPrPhe(4-CF3)][Sar][hPhe(3-Cl-4-CF3)]P[Ac4c][NMeGly(cPent)][NMeD]-Morpholide; lactam N-11)", "values": [{"measurement": "NRAS/KRAS (ratio of KD for GDP-bound NRAS wild-type to KD for KRAS)", "setting": "[1]; KD ratio NRAS/KRAS", "value": "B (a compound having 3 or more and less than 10 is denoted as B)"}, {"measurement": "HRAS/KRAS (ratio of KD for GDP-bound HRAS wild-type to KD for KRAS)", "setting": "[2]; KD ratio HRAS/KRAS", "value": "B (a compound having 3 or more and less than 10 is denoted as B)"}]}
{"compound": "CCC[C@H]1C(=O)N[C@@H]([C@@H](C)CC)C(=O)N(C)CC(=O)N(C)[C@H]2C/C=C\\CCN(C2=O)[C@@H](Cc2ccc(C(F)(F)F)cc2)C(=O)N(C)CC(=O)N[C@@H](CCc2ccc(C(F)(F)F)c(Cl)c2)C(=O)N2CC3(CC3)C[C@H]2C(=O)NC2(CC(C)(C)C2)C(=O)N(C)[C@@H](CC(C)(C)C)C(=O)N(C)[C@H](C(=O)N(C)C)CC(=O)N1C", "note": "[PP2979]", "values": [{"measurement": "NRAS/KRAS (ratio of KD value with respect to GDP-bound NRAS wild-type protein to KD value with respect to KRAS)", "setting": "[1]; KD ratio NRAS/KRAS, GDP-bound wild-type proteins", "value": "A (a compound having 10 or more and less than 20 is denoted as A)"}, {"measurement": "HRAS/KRAS (ratio of KD value with respect to GDP-bound HRAS wild-type protein to KD value with respect to KRAS)", "setting": "[2]; KD ratio HRAS/KRAS, GDP-bound wild-type proteins", "value": "B (a compound having 3 or more and less than 10 is denoted as B)"}]}
{"compound": "CCC[C@H]1C(=O)N[C@@H]([C@@H](C)CC)C(=O)N(C)CC(=O)N(C)[C@H]2C/C=C\\CCN(C2=O)[C@@H](Cc2ccc(C)cc2)C(=O)N(C)CC(=O)N[C@@H](CCc2ccc(C(F)(F)F)c(OC)c2)C(=O)N2C[C@H](C)C[C@H]2C(=O)NC2(CCC2)C(=O)N(C)[C@@H](C2CCCC2)C(=O)N(C)[C@H](C(=O)N(C)C)CC(=O)N1C", "note": "[PP1859]", "values": [{"measurement": "NRAS/KRAS (ratio of KD value for NRAS to KD value for KRAS)", "setting": "[1]; [3]", "value": "A (a compound having 10 or more and less than 20 is denoted as A)"}, {"measurement": "HRAS/KRAS (ratio of KD value for HRAS to KD value for KRAS)", "setting": "[2]; [4]", "value": "A (a compound having 10 or more and less than 20 is denoted as A)"}]}
{"compound": "CCOC[C@H]1C(=O)N[C@@H]([C@@H](C)CC)C(=O)N(C)CC(=O)N(C)[C@H]2C/C=C\\CCN(C2=O)[C@@H](Cc2ccc(C)cc2)C(=O)N(C)CC(=O)N[C@@H](CCc2ccc(C(F)(F)F)c(Cl)c2)C(=O)N2C[C@H](OCC)C[C@H]2C(=O)NC2(CC(C)(C)C2)C(=O)N(C)[C@@H](C2CCCC2)C(=O)N(C)[C@H](C(=O)N(C)CC)CC(=O)N1C", "note": "[PP2401]", "values": [{"measurement": "NRAS/KRAS (ratio of KD value with respect to NRAS to KD value with respect to KRAS)", "setting": "[1]; GDP-bound NRAS wild-type vs GDP-bound KRAS wild-type", "value": "A (a compound having 10 or more and less than 20 is denoted as A)"}, {"measurement": "HRAS/KRAS (ratio of KD value with respect to HRAS to KD value with respect to KRAS)", "setting": "[2]; GDP-bound HRAS wild-type vs GDP-bound KRAS wild-type", "value": "A (a compound having 10 or more and less than 20 is denoted as A)"}]}
{"compound": "C=CC[C@H]1C(=O)N[C@@H]([C@@H](C)CC)C(=O)N(C)CC(=O)N(C)[C@H]2CCCCCN(C2=O)[C@@H](Cc2ccc(C(F)(F)F)cc2)C(=O)N(C)CC(=O)N[C@@H](CCc2cc(F)c(C(F)(F)F)c(F)c2)C(=O)N2C[C@H](OCC)C[C@H]2C(=O)N[C@](C)(CC=C)C(=O)N(C)[C@@H](C2CCCC2)C(=O)N(C)[C@H](C(=O)N2CCOCC2)CC(=O)N1C", "note": "[PP0878]", "values": [{"measurement": "NRAS/KRAS (ratio of KD value with respect to NRAS to KD value with respect to KRAS)", "setting": "[1]; [3]", "value": "B (a compound having 3 or more and less than 10 is denoted as B)"}, {"measurement": "HRAS/KRAS (ratio of KD value with respect to HRAS to KD value with respect to KRAS)", "setting": "[2]; [4]", "value": "B (a compound having 3 or more and less than 10 is denoted as B)"}]}
{"compound": "CCCN1C(=O)CN(C)C(=O)CN(C)C(=O)[C@H]([C@@H](C)CC)NC(=O)[C@H](CC(C)C)N(C)C(=O)C[C@@H](C(=O)N2CCOCC2)N(C)C(=O)[C@H](C2CCCC2)N(C)C(=O)C2(CCCC2)NC(=O)[C@@H]2C[C@H](OCC)CN2C(=O)[C@H](CCc2ccc(C(F)(F)F)c(Cl)c2)NC(=O)CN(C)C(=O)[C@@H]1Cc1ccc(C(F)(F)F)cc1", "note": "[PP0243] ([NMeL]I[Sar][Sar][NPrPhe(4-CF3)][Sar][hPhe(3-Cl-4-CF3)][cisHyp](Et)[Ac5c][NMeGly(cPent)][NMeD]-Morpholide; lactam N-11)", "values": [{"measurement": "NRAS/KRAS (ratio of KD for GDP-bound NRAS wild-type to KD for KRAS)", "setting": "[1]; KD ratio NRAS/KRAS", "value": "B (a compound having 3 or more and less than 10 is denoted as B)"}, {"measurement": "HRAS/KRAS (ratio of KD for GDP-bound HRAS wild-type to KD for KRAS)", "setting": "[2]; KD ratio HRAS/KRAS", "value": "C (A compound having a KD ratio of 0.1 or more and less than 3 is denoted as C)"}]}
{"compound": "CCO[C@@H]1C[C@H]2C(=O)NC3(CCCC3)C(=O)N(C)[C@@H](C3CCCC3)C(=O)N(C)[C@H](C(=O)N3CCOCC3)CC(=O)N(C)[C@@H](CC(C)C)C(=O)N[C@@H]([C@@H](C)CC)C(=O)N(C)[C@@H](C)C(=O)N3CC[C@H]3C(=O)N(CC)[C@@H](Cc3ccc(C)cc3)C(=O)N(C)CC(=O)N[C@@H](CCc3ccc(C(F)(F)F)c(Cl)c3)C(=O)N2C1", "note": "[PP0014] ([NMeL]I[NMeA][Aze][NEtPhe(4-Me)][Sar][hPhe(3-Cl-4-CF3)][Hyp](Et)[Ac5c][NMeGly(cPent)][NMeD]-Morpholide; lactam N-11)", "values": [{"measurement": "NRAS/KRAS (ratio of KD for GDP-bound NRAS wild-type to KD for KRAS)", "setting": "[1]; KD ratio NRAS/KRAS", "value": "C (A compound having a KD ratio of 0.1 or more and less than 3 is denoted as C)"}, {"measurement": "HRAS/KRAS (ratio of KD for GDP-bound HRAS wild-type to KD for KRAS)", "setting": "[2]; KD ratio HRAS/KRAS", "value": "C (A compound having a KD ratio of 0.1 or more and less than 3 is denoted as C)"}]}
